PubChem BioAssay AID248 (DTP/NCI, 2004)
“And” between values parts separate entries of the source, which are not always exact repeats. Equal entries are not always repeated. Toxic doses and inconclusive results are not listed. Rule as the data show it: active = T/C of 150% or more; inactive = T/C below 125%.

Test system: L1210 leukemia ip in BDF1 mice, survival T/C
Assay: NCI In Vivo Anticancer Drug Screen. Data for tumor model L1210 Leukemia (intraperitoneal) in B6D2F1 (BDF1) mice
Conditions: endpoint: mean survival time, higher = longer survival
Procedure, shortened: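 Value reflects the ratio of survival in compound-treated mice to survival in vehicle-treated controls, with both groups carrying the same transplanted tumor.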

[1] = dose: 100.0 mg/kg/injection, schedule: Q04DX002 (ip), vehicle: saline with Tween-80
[2] = dose: 200.0 mg/kg/injection, schedule: Q04DX002 (ip), vehicle: saline with Tween-80
[3] = dose: 100.0 mg/kg/injection, schedule: Q01DX009 (ip), vehicle: Klucel (hydroxypropylcellulose) (HPC)
[4] = dose: 200.0 mg/kg/injection, schedule: Q01DX009 (ip), vehicle: Klucel (hydroxypropylcellulose) (HPC)
[5] = dose: 400.0 mg/kg/injection, schedule: Q01DX009 (ip), vehicle: Klucel (hydroxypropylcellulose) (HPC)
[6] = dose: 100.0 mg/kg/injection, schedule: Q04DX003 (ip), vehicle: Klucel (hydroxypropylcellulose) (HPC)
[7] = dose: 200.0 mg/kg/injection, schedule: Q04DX003 (ip), vehicle: Klucel (hydroxypropylcellulose) (HPC)
[8] = dose: 100.0 mg/kg/injection, schedule: Q01DX009 (ip), vehicle: saline
[9] = dose: 200.0 mg/kg/injection, schedule: Q01DX009 (ip), vehicle: saline
[10] = dose: 100.0 mg/kg/injection, schedule: Q04DX003 (ip), vehicle: saline with Tween-80
[11] = dose: 200.0 mg/kg/injection, schedule: Q04DX003 (ip), vehicle: saline with Tween-80
[12] = dose: 400.0 mg/kg/injection, schedule: Q04DX003 (ip), vehicle: saline with Tween-80
[13] = dose: 100.0 mg/kg/injection, schedule: Q01DX001 (ip), vehicle: saline
[14] = dose: 200.0 mg/kg/injection, schedule: Q01DX001 (ip), vehicle: saline
[15] = dose: 400.0 mg/kg/injection, schedule: Q01DX001 (ip), vehicle: saline
[16] = dose: 50.0 mg/kg/injection, schedule: Q01DX001 (ip), vehicle: saline
[17] = dose: 100.0 mg/kg/injection, schedule: Q04DX003 (ip), vehicle: saline
[18] = dose: 200.0 mg/kg/injection, schedule: Q04DX003 (ip), vehicle: saline
[19] = dose: 400.0 mg/kg/injection, schedule: Q04DX003 (ip), vehicle: saline
[20] = dose: 50.0 mg/kg/injection, schedule: Q01DX001 (ip), vehicle: carboxymethylcellulose (CMC)
[21] = dose: 100.0 mg/kg/injection, schedule: Q01DX001 (ip), vehicle: carboxymethylcellulose (CMC)
[22] = dose: 200.0 mg/kg/injection, schedule: Q01DX001 (ip), vehicle: carboxymethylcellulose (CMC)
[23] = dose: 400.0 mg/kg/injection, schedule: Q01DX001 (ip), vehicle: carboxymethylcellulose (CMC)

Measured: T/C

O=S(=O)(F)c1ccc(Cl)cc1CBr
inactive: [1] 107 % of control | [2] 101 % of control | dose: 400.0 mg/kg/injection, schedule: Q04DX002 (ip), vehicle: saline with Tween-80 92 % of control

COc1cc(C(=O)Nc2cc(C(F)(F)F)ccc2Cl)cc(OC)c1OC
inactive: [3] 106 % of control | [4] 100 % of control | [5] 97 % of control

ClC1=C(Cl)C2(Cl)C(C1Cl)C1(Cl)C(Cl)=C(Cl)C2(Cl)C1Cl (stereo unspecified)
inactive: [3] 97 % of control | [6] 102 % of control | [4] 97 % of control | [7] 104 % of control | [5] 97 % of control | dose: 400.0 mg/kg/injection, schedule: Q04DX003 (ip), vehicle: Klucel (hydroxypropylcellulose) (HPC) 93 % of control

CCCCOB(OCCCC)c1cccc(C(F)(F)F)c1
inactive: [8] 100 % of control | [9] 89 % of control

C=CCNC(=O)CS(=O)(=O)c1ccc(C)cc1
inactive: [10] 94 % of control | [11] 100 % of control | [12] 96 % of control

COc1cc(N=Nc2ccccc2)ccc1N
inactive: [13] 95 % of control | dose: 100.0 mg/kg/injection, schedule: Q04DX003 (ip), vehicle: acetone 100 % of control and 111 % of control | [14] 112 % of control | dose: 200.0 mg/kg/injection, schedule: Q04DX003 (ip), vehicle: acetone 95 % of control | [15] 96 % of control | dose: 400.0 mg/kg/injection, schedule: Q04DX003 (ip), vehicle: acetone 96 % of control and 91 % of control

CCNC(=O)Nc1cccc(NC(=O)C(=O)O)c1 (tested in a mixture with another compound)
inactive: dose: 100.0 mg/kg/injection, schedule: Q01DX001 (ip), vehicle: gum acacia 87 % of control | dose: 200.0 mg/kg/injection, schedule: Q01DX001 (ip), vehicle: gum acacia 97 % of control | dose: 400.0 mg/kg/injection, schedule: Q01DX001 (ip), vehicle: gum acacia 96 % of control

CC(Oc1ccccc1)C(=O)NC(=S)Nc1cc(C(F)(F)F)ccc1Cl (stereo unspecified)
inactive: dose: 50.0 mg/kg/injection, schedule: Q01DX009 (ip), vehicle: other 101 % of control and 103 % of control | dose: 100.0 mg/kg/injection, schedule: Q01DX001 (ip), vehicle: other 105 % of control | dose: 100.0 mg/kg/injection, schedule: Q01DX009 (ip), vehicle: other 100 % of control and 92 % of control | dose: 100.0 mg/kg/injection, schedule: Q04DX002 (ip), vehicle: other 97 % of control and 110 % of control | dose: 200.0 mg/kg/injection, schedule: Q01DX001 (ip), vehicle: other 100 % of control | dose: 200.0 mg/kg/injection, schedule: Q01DX009 (ip), vehicle: other 95 % of control and 92 % of control | dose: 200.0 mg/kg/injection, schedule: Q04DX002 (ip), vehicle: other 98 % of control and 106 % of control | dose: 400.0 mg/kg/injection, schedule: Q01DX001 (ip), vehicle: other 94 % of control | dose: 400.0 mg/kg/injection, schedule: Q01DX009 (ip), vehicle: other 87 % of control | dose: 400.0 mg/kg/injection, schedule: Q04DX002 (ip), vehicle: other 97 % of control and 116 % of control

COc1cc2c(cc1OC)C(C)=NCC2
inactive: dose: 12.0 mg/kg/injection, schedule: Q01DX009 (ip), vehicle: saline 103 % of control | dose: 25.0 mg/kg/injection, schedule: Q01DX009 (ip), vehicle: saline 94 % of control | dose: 25.0 mg/kg/injection, schedule: Q04DX003 (ip), vehicle: saline 105 % of control | [16] 114 % of control | dose: 50.0 mg/kg/injection, schedule: Q01DX009 (ip), vehicle: saline 110 % of control | dose: 50.0 mg/kg/injection, schedule: Q04DX003 (ip), vehicle: saline 105 % of control | [13] 104 % of control | [17] 102 % of control

COC1OC(CO)C(OS(=O)(=O)c2ccc(C)cc2)C(C(=O)Oc2ccccc2)C1OC(=O)c1ccccc1 (stereo unspecified)
inactive: dose: 50.0 mg/kg/injection, schedule: Q04DX002 (ip), vehicle: saline with Tween-80 93 % of control | [1] 104 % of control | [2] 90 % of control

NC1=NC(=O)/C(=C/c2ccco2)S1
inactive: dose: 75.0 mg/kg/injection, schedule: Q01DX001 (ip), vehicle: saline 98 % of control | dose: 150.0 mg/kg/injection, schedule: Q01DX001 (ip), vehicle: saline 93 % of control | dose: 300.0 mg/kg/injection, schedule: Q01DX001 (ip), vehicle: saline 90 % of control

CC(=O)Nc1ccc(CC(=O)O)cc1
inactive: dose: 100.0 mg/kg/injection, schedule: Q01DX001 (ip), vehicle: saline with Tween-80 96 % of control | dose: 200.0 mg/kg/injection, schedule: Q01DX001 (ip), vehicle: saline with Tween-80 93 % of control | dose: 400.0 mg/kg/injection, schedule: Q01DX001 (ip), vehicle: saline with Tween-80 100 % of control

Cc1c2cnccc2c(C)c2c1sc1ccccc12
inactive: dose: 75.0 mg/kg/injection, schedule: Q01DX001 (ip), vehicle: other 101 % of control | dose: 150.0 mg/kg/injection, schedule: Q01DX001 (ip), vehicle: other 106 % of control | dose: 300.0 mg/kg/injection, schedule: Q01DX001 (ip), vehicle: other 124 % of control

CCCCCCCCCCCCCC(CCCCCC)C1CCCCC1 (stereo unspecified)
inactive: dose: 100.0 mg/kg/injection, schedule: Q01DX001 (ip), vehicle: acetone 100 % of control | dose: 200.0 mg/kg/injection, schedule: Q01DX001 (ip), vehicle: acetone 106 % of control | dose: 400.0 mg/kg/injection, schedule: Q01DX001 (ip), vehicle: acetone 101 % of control

Cc1cc(C)c2ccc(Cl)nc2n1
inactive: dose: 25.0 mg/kg/injection, schedule: Q01DX009 (ip), vehicle: Klucel (hydroxypropylcellulose) (HPC) 97 % of control | dose: 50.0 mg/kg/injection, schedule: Q01DX009 (ip), vehicle: Klucel (hydroxypropylcellulose) (HPC) 99 % of control

O=C(O)C1CCCCC1/C=N/Nc1ccc([N+](=O)[O-])cc1[N+](=O)[O-] (stereo unspecified)
inactive: [16] 93 % of control | [14] 89 % of control

COc1cccc(/C=C(/SC)S(C)=O)c1OC (stereo unspecified)
inactive: [17] 105 % of control | [18] 106 % of control | [19] 102 % of control

CC(=O)Nc1ccc(OC(=O)Nc2ccc([N+](=O)[O-])cc2Cl)cc1
inactive: [8] 102 % of control | [17] 103 % of control | [9] 104 % of control | [18] 100 % of control | dose: 400.0 mg/kg/injection, schedule: Q01DX009 (ip), vehicle: saline 104 % of control | [19] 103 % of control

CCCCN1C(=O)c2ccccc2C1=O
inactive: dose: 100.0 mg/kg/injection, schedule: Q04DX003 (ip), vehicle: carboxymethylcellulose (CMC) 102 % of control | dose: 200.0 mg/kg/injection, schedule: Q04DX003 (ip), vehicle: carboxymethylcellulose (CMC) 93 % of control | dose: 400.0 mg/kg/injection, schedule: Q04DX003 (ip), vehicle: carboxymethylcellulose (CMC) 101 % of control

O=c1[nH]cnc2c1ncn2-c1ccc(N(CCO)CCO)cc1
inactive: [20] 98 % of control | [21] 115 % of control | [22] 95 % of control | [23] 98 % of control

CCCC(CNC(=O)OCC)(CNC(=O)OCC)c1ccccc1
inactive: [21] 94 % of control | [22] 94 % of control | [23] 105 % of control

CCCC(O)CC(C)O (stereo unspecified)
inactive: [13] 97 % of control | [14] 100 % of control | [15] 95 % of control

OCC(O)C(O)/C=N/Nc1cc(Cl)ccc1Cl (stereo unspecified)
inactive: [20] 90 % of control | [21] 104 % of control | [22] 95 % of control

Cc1nc2ncnc(NCc3ccc(Cl)cc3Cl)c2[nH]1
inactive: [13] 97 % of control | [14] 89 % of control | [15] 108 % of control

Cc1ccc(N=Cc2cc(I)cc(I)c2O)cc1.Cc1ccc(N=Cc2cc(I)cc(I)c2O)cc1.[Co]
inactive: [10] 92 % of control | [11] 102 % of control and 91 % of control | [12] 96 % of control and 89 % of control

CCCCNC(c1ccccc1)C(Cl)c1ccccc1 (stereo unspecified)
inactive: [6] 97 % of control | [7] 97 % of control
